Laboratory results as given in patent US9242933B2 (AbbVie Deutschland GmbH & Co. KG, priority 2007, dated 2016).

Biological target: T1, human mGlu2 receptor (Homo sapiens, UniProt Q14416)
T1 construct: expressed in transfected cells; host or cells: HEK293
Experiment: FLIPR intracellular Ca2+ assay, potentiation of glutamate response in HEK293 clone expressing mGlu2 receptor, rGLAST and Galpha16
Assay type: cell-based
Details: 1 μM glutamate added ten minutes after test compound, HEK293 cells with human mGlu2, rGLAST, Galpha16, read-out: EC50 values of potentiation effect to glutamate
In short: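 HEK293 cells stably expressing human mGlu2, rat GLAST and Gα16 were loaded with 2 µM Fluo-4 AM and intracellular Ca2+ read by FLIPR. Compound added alone (agonism), then with submaximal glutamate (e.g. 1 µM; potentiation). Background-subtracted peaks normalized to 100 µM glutamate response; EC50 from four-parameter fit.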

T1 sequence (Q14416 19-872): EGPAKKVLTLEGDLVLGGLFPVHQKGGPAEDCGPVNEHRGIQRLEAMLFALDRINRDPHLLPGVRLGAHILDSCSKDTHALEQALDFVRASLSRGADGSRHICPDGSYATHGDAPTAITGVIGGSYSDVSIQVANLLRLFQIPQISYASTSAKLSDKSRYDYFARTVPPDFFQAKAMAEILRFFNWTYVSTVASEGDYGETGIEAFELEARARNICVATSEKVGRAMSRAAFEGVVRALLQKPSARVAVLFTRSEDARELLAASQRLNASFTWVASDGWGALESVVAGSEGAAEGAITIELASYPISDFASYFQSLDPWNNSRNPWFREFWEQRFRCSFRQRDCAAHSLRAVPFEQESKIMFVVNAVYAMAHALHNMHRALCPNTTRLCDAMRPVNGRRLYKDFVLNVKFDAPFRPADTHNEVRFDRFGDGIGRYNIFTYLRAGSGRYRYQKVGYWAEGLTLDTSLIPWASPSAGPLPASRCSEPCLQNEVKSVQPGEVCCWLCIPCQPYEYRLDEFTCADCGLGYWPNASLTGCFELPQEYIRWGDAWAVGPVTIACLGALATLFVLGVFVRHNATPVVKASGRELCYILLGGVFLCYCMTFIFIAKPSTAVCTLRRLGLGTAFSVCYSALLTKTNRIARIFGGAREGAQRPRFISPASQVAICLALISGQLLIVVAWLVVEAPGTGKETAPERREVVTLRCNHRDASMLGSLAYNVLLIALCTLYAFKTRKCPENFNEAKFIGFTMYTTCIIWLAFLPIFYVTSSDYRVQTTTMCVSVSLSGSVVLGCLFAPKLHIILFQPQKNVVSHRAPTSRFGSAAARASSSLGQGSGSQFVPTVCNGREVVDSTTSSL

| Compound | EC50 |
| --- | --- |
| CCCN1Cc2cc(NCc3c[nH]nc3-c3cccc(C(F)(F)F)c3)ccc2C1=O [Example 578] | < 1000 nM |
| CCCN1Cc2cc(NCc3c[nH]nc3-c3ccc(F)cc3)ccc2C1=O [Example 579, 5-{[3-(4-Fluorophenyl)-1H-pyrazol-4-ylmethyl]-amino}-2-propyl-2,3-dihydro-isoindol-1-one] | < 1000 nM |
| CCCN1Cc2cc(NCc3c[nH]nc3-c3cccc(F)c3)ccc2C1=O [Example 580, 5-{[3-(3-Fluorophenyl)-1H-pyrazol-4-ylmethyl]-amino}-2-propyl-2,3-dihydro-isoindol-1-one] | < 1000 nM |
| CCCN1Cc2cc(NCc3c[nH]nc3-c3ccccc3)ccc2C1=O [Example 581, 5-[(3-Phenyl-1H-pyrazol-4-ylmethyl)-amino]-2-propyl-2,3-dihydro-isoindol-1-one] | < 1000 nM |
| CCCN1Cc2cc(NCc3n[nH]cc3-c3cccc(C(F)(F)F)c3)ccc2C1=O [Example 582] | 1000 to 10000 nM |
| O=C1c2ccc(OCc3c[nH]nc3-c3ccc(C(F)(F)F)cc3)cc2CN1Cc1ccc(OC(F)(F)F)cc1 [Example 585, 2-(4-Trifluoromethoxy-benzyl)-5-[3-(4-trifluoromethyl-phenyl)-1H-pyrazol-4-ylmethoxy]-2,3-dihydro-isoindol-1-one] | < 1000 nM |
| O=C1c2ccc(OCc3c[nH]nc3-c3ccc(C(F)(F)F)cc3)cc2CN1CC1CCCCC1 [Example 586, 2-Cyclohexylmethyl-5-[3-(4-trifluoromethyl-phenyl)-1H-pyrazol-4-ylmethoxy]-2,3-dihydro-isoindol-1-one] | < 1000 nM |
| CC(C)CN1Cc2cc(OCc3c[nH]nc3-c3ccc(C(F)(F)F)cc3)ccc2C1=O [Example 587, 2-Isobutyl-5-[3-(4-trifluoromethyl-phenyl)-1H-pyrazol-4-ylmethoxy]-2,3-dihydro-isoindol-1-one] | < 1000 nM |
| O=C1c2ccc(OCc3c[nH]nc3-c3ccc(C(F)(F)F)cc3)cc2CN1C1CCCC1 [Example 588, 2-Cyclopentyl-5-[3-(4-trifluoromethyl-phenyl)-1H-pyrazol-4-ylmethoxy]-2,3-dihydro-isoindol-1-one] | < 1000 nM |
| O=C1c2ccc(OCc3c[nH]nc3-c3ccc(C(F)(F)F)cc3)cc2CN1c1ccccc1 [Example 589, 2-Phenyl-5-[3-(4-trifluoromethyl-phenyl)-1H-pyrazol-4-ylmethoxy]-2,3-dihydro-isoindol-1-one] | 1000 to 10000 nM |
| CCCN1Cc2cc(NCc3c(C)noc3-c3ccccc3)ccc2C1=O [Example 590, 5-[(3-Methyl-5-phenyl-isoxazol-4-ylmethyl)-amino]-2-propyl-2,3-dihydro-isoindol-1-one] | < 1000 nM |

Continued, values first:

| EC50 | Compound |
| --- | --- |
| < 1000 nM | O=C1c2ccc(OCc3c[nH]nc3-c3ccc(C(F)(F)F)cc3)cc2CN1CC(F)(F)F [Example 568, 2-(2,2,2-Trifluoro-ethyl)-5-[3-(4-trifluoromethyl-phenyl)-1H-pyrazol-4-ylmethoxy]-2,3-dihydro-isoindol-1-one] |
| < 1000 nM | O=C1c2ccc(OCc3c[nH]nc3-c3cccc(C(F)(F)F)c3)cc2CN1CC(F)(F)F [Example 569, 2-(2,2,2-Trifluoro-ethyl)-5-[3-(3-trifluoromethyl-phenyl)-1H-pyrazol-4-ylmethoxy]-2,3-dihydro-isoindol-1-one] |
| < 1000 nM | O=C1c2ccc(OCc3c[nH]nc3-c3ccc(F)cc3)cc2CN1CC(F)(F)F [Example 570, 5-[3-(4-Fluorophenyl)-1H-pyrazol-4-ylmethoxy]-2-(2,2,2-trifluoro-ethyl)-2,3-dihydro-isoindol-1-one] |
| < 1000 nM | O=C1c2ccc(OCc3c[nH]nc3-c3cccc(F)c3)cc2CN1CC(F)(F)F [Example 571, 5-[3-(3-Fluorophenyl)-1H-pyrazol-4-ylmethoxy]-2-(2,2,2-trifluoro-ethyl)-2,3-dihydro-isoindol-1-one] |
| < 1000 nM | CN1Cc2cc(OCc3c[nH]nc3-c3ccc(C(F)(F)F)cc3)ccc2C1=O [Example 573, 2-Methyl-5-[3-(4-trifluoromethyl-phenyl)-1H-pyrazol-4-ylmethoxy]-2,3-dihydro-isoindol-1-one] |
| < 1000 nM | CCCN1CCc2cc(OCc3c[nH]nc3-c3ccc(C(F)(F)F)cc3)ccc2C1=O [Example 574, 2-Propyl-6-[3-(4-trifluoromethyl-phenyl)-1H-pyrazol-4-ylmethoxy]-3,4-dihydro-2H-isoquinolin-1-one] |
| < 1000 nM | CCCN1Cc2cc(NCc3c[nH]nc3-c3ccc(Cl)cc3)ccc2C1=O [Example 576, 5-{[3-(4-Chloro-phenyl)-1H-pyrazol-4-ylmethyl]-amino}-2-propyl-2,3-dihydro-isoindol-1-one] |
| < 1000 nM | CCCN1Cc2cc(NCc3c[nH]nc3-c3cccc(Cl)c3)ccc2C1=O [Example 577, 5-{[3-(3-Chloro-phenyl)-1H-pyrazol-4-ylmethyl]-amino}-2-propyl-2,3-dihydro-isoindol-1-one] |

Biological target: mGlu3 (Homo sapiens, UniProt Q14832)
Experiment: not given
Details: agonist; cited from earlier work

Sequence of mGlu3 (Q14832 23-879): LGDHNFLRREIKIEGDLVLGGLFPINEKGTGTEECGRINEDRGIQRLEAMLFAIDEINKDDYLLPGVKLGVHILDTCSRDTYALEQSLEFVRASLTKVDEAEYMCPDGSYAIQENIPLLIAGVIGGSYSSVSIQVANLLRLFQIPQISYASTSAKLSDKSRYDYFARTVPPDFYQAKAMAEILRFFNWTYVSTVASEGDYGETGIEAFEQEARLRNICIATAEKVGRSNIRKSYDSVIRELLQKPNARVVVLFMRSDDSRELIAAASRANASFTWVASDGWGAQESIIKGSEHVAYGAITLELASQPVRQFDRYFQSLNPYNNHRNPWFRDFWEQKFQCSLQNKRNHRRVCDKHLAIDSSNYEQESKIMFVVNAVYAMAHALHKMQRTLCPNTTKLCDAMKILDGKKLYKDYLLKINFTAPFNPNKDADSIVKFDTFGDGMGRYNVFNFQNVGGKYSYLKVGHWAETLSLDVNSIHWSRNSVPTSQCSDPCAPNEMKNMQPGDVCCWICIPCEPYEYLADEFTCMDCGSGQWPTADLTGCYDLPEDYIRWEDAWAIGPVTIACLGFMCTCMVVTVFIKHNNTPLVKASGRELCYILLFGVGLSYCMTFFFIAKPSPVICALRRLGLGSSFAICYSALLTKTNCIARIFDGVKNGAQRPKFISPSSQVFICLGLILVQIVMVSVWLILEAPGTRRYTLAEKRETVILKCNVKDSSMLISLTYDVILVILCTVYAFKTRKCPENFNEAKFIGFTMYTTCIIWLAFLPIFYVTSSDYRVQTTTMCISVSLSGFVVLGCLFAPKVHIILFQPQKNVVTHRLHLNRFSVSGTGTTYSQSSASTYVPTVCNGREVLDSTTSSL

| Compound | EC50 |
| --- | --- |
| N[C@@]1(C(=O)O)CC[C@H]2[C@H](C(=O)O)[C@H]21 [LY354740] | 20 nM |
| N[C@@]1(C(=O)O)CO[C@H]2[C@H](C(=O)O)[C@H]21 [LY379268] | 5 nM |
